Assay results: PubChem BioAssay (NCI)
“And” between values parts separate entries of the source, which are not always exact repeats. Equal values may be shown once.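 Results reflect a 48-hour exposure of cells in 96-well plates to compound at five concentrations. GI50: concentration for 50% inhibition of growth. The concentration for full growth arrest is given as TGI.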

Legend:
Assay in all cases: growth of human tumour cells (NCI), 48 h
[1] = system: A498 renal
[2] = system: HOP-62 NSCLC
[3] = system: IGROV1 ovarian
[4] = system: MCF7 breast
[5] = system: MDA-MB-231 breast
[6] = system: NCI-H522 lung
[7] = system: OVCAR-5 ovarian
[8] = system: PC-3 prostate
[9] = system: RXF 393 renal
[10] = system: SK-MEL-5 melanoma

SMILES: CC1SC(c2cccs2)N(NC(=O)C(O)c2ccccc2)C1=O (configuration not stated)
- GI50 [1]: > 100 µM
- TGI [1]: > 100 µM
- GI50 [2]: > 100 µM
- TGI [2]: > 100 µM
- GI50 [3]: > 100 µM
- TGI [3]: > 100 µM
- GI50 [4]: > 100 µM
- TGI [4]: > 100 µM
- GI50 [5]: > 100 µM
- TGI [5]: > 100 µM
- GI50 [6]: > 100 µM
- TGI [6]: > 100 µM
- GI50 [7]: > 100 µM
- TGI [7]: > 100 µM
- GI50 [8]: > 100 µM
- TGI [8]: > 100 µM
- GI50 [9]: > 100 µM
- TGI [9]: > 100 µM
- GI50 [10]: > 100 µM
- TGI [10]: > 100 µM

SMILES: COc1ccccc1Nc1nc(-c2cc3cccc(C(F)(F)F)c3oc2=O)cs1
- GI50 [1]: 0.0366 µM
- TGI [1]: 38.9 µM
- GI50 [2]: 0.134 µM
- TGI [2]: 29.7 µM
- GI50 [3]: 0.257 µM
- TGI [3]: > 53 µM
- GI50 [4]: 0.0574 µM
- TGI [4]: > 100 µM
- GI50 [5]: 0.516 µM
- TGI [5]: > 55.9 µM
- GI50 [6]: 0.0402 µM
- TGI [6]: 1.51 µM
- GI50 [7]: 0.572 µM
- TGI [7]: > 100 µM
- GI50 [8]: 0.162 µM
- TGI [8]: > 100 µM
- GI50 [9]: 0.0657 µM
- TGI [9]: 30.7 µM
- GI50 [10]: 0.169 µM
- TGI [10]: 0.627 µM

SMILES: O=Nc1c(-c2cccc([N+](=O)[O-])c2)nc2ncccn12
- GI50 [1]: 17.4 µM
- TGI [1]: 38.3 µM
- GI50 [2]: 20.9 µM
- TGI [2]: 48.7 µM
- GI50 [3]: 10.3 µM
- TGI [3]: 23.4 µM
- GI50 [4]: 3.51 µM
- TGI [4]: 22.6 µM
- GI50 [5]: 16.4 µM
- TGI [5]: 35.2 µM
- GI50 [6]: 10.6 µM
- TGI [6]: 25.1 µM
- GI50 [7]: 18.5 µM
- TGI [7]: 39.1 µM
- GI50 [8]: 13.7 µM
- TGI [8]: 36.3 µM
- TGI [9]: 3.01 µM
- GI50 [10]: 15.2 µM
- TGI [10]: 32.2 µM

SMILES: Cn1c(=O)c(F)c(Nc2ccc(I)cc2F)c2c(=O)n(C[C@@H](O)CO)cnc21
- GI50 [1]: < 0.01 µM and 0.0103 µM
- TGI [1]: 0.0305 µM and 0.0752 µM
- GI50 [2]: 0.0545 µM and 0.0151 µM
- TGI [2]: > 69.7 µM
- GI50 [3]: 0.106 µM and 0.0179 µM
- TGI [3]: 20.8 µM
- GI50 [4]: 21 µM
- TGI [4]: 75 µM and > 4.05 µM
- GI50 [5]: 0.0442 µM and 0.0456 µM
- TGI [5]: 8.98 µM and > 1.99 µM
- TGI [6]: > 100 µM
- GI50 [7]: < 0.01 µM and 0.0058 µM
- TGI [7]: 35.3 µM and > 1.97 µM
- GI50 [8]: 16.4 µM
- TGI [8]: 71.5 µM and > 4.12 µM
- GI50 [9]: 0.16 µM and 0.162 µM
- TGI [9]: 4 µM and > 2.93 µM
- GI50 [10]: < 0.0268 µM and 0.0448 µM
- TGI [10]: 17.9 µM and > 3.46 µM

SMILES: CSC(=S)N/N=C(\C)c1ccccn1
- GI50 [1]: 0.458 µM
- TGI [1]: 6.33 µM
- GI50 [2]: 0.366 µM
- TGI [2]: 5.19 µM
- GI50 [3]: 0.171 µM
- TGI [3]: 17.4 µM
- GI50 [4]: < 0.0207 µM
- TGI [4]: 11.2 µM
- GI50 [5]: 0.113 µM
- TGI [5]: 8.98 µM
- GI50 [6]: 0.0339 µM
- TGI [6]: 0.368 µM
- GI50 [7]: 0.143 µM
- TGI [7]: 22.2 µM
- GI50 [8]: 0.0452 µM
- TGI [8]: > 82.2 µM
- GI50 [9]: 0.261 µM
- TGI [9]: 3.1 µM
- GI50 [10]: 0.28 µM
- TGI [10]: 1.04 µM

SMILES: C[n+]1c2ccccc2c(NC2CCNCC2)c2[nH]c3ccccc3c21
- GI50 [1]: 1.35 µM
- TGI [1]: 5.05 µM
- GI50 [2]: 0.473 µM
- TGI [2]: 5.17 µM
- GI50 [3]: 0.363 µM
- TGI [3]: 5.05 µM
- GI50 [4]: 0.231 µM
- TGI [4]: 2.2 µM
- GI50 [5]: 0.762 µM
- TGI [5]: 7.19 µM
- GI50 [6]: 0.124 µM
- TGI [6]: 0.699 µM
- GI50 [7]: 1.76 µM
- TGI [7]: 17.6 µM
- GI50 [8]: 1.53 µM
- TGI [8]: 5.75 µM
- TGI [9]: 0.46 µM
- GI50 [10]: 0.488 µM
- TGI [10]: 2.32 µM
